This is an account of results in PubChem BioAssay (NCI).

“And” between values parts separate entries of the source, which are not always exact repeats. Equal values may be shown once.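 Test compounds were applied to cells in 96-well plates for 48 hours at 5 doses. GI50 = concentration required for 50% inhibition of growth. TGI denotes the concentration required for complete inhibition of growth.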

Common to all, as to test: inhibition of tumour cell growth, NCI panel, 48 h
The subject of test [1] is IGROV1 ovarian.
Test [2] relates to 786-0 renal.
The subject of test [3] is KM12 colon.
Test [4] relates to TK-10 renal.
Test [5] concerns DU-145 prostate.
Test [6] deals with NCI-H226 lung.
The test system of test [7] is OVCAR-5 ovarian.
Test [8] relates to SK-MEL-5 melanoma.
Test [9] deals with MDA-MB-435.
Test [10] concerns RPMI-8226 leukemia.

Consider `C[C@@H](CO)[C@@H]1CCC=C2CC[C@]3(C)[C@H](CC[C@@H]4[C@@]5(C)CCCNC(C)(C)[C@@H]5CC[C@]43C)[C@H]21`, for which the GI50 in [1] is 1.78 µM; in [2] it was 1.93 µM; in [3], 1.97 µM; in test [4], 8.36 µM; in [5], 3.36 µM; in [6] it was 14.6 µM. Further, the values for the GI50 in test [7], in test [8] and in test [9] were 3.18 µM, 1.77 µM and 1.76 µM, respectively. For the same compound, the TGI was 3.41 µM in test [1]; 3.82 µM in [2]; 4.09 µM in test [3]; 24.8 µM in test [4]; 11.3 µM in test [5]; 35.3 µM in test [6]. The TGI worked out at 12.6 µM in test [7], 3.18 µM in test [8] and 3.53 µM in test [9].

As for `CCCCCCCCCCCC1CCCC(C)N1` (configuration not stated), the GI50 in [1] is 6.13 µM; in test [2], 13.7 µM; in [3] it was 2.95 µM; in test [4] it was 6.47 µM; in test [10], 1.66 µM; in [5] it was 12.5 µM. The GI50 was 16.7 µM in [6], 12.5 µM in test [7], 8.15 µM in [8] and 5.01 µM in [9]. Also, the TGI in test [1] was 19.2 µM and 142 µM; in test [2] it was 42.9 µM; in test [4], 19.3 µM; in test [5], 26.1 µM; in test [6], 36.9 µM and 166 µM; in test [7] it was 28.5 µM and 162 µM. Further, the TGI was 21.4 µM and 93.7 µM in test [8]; 18.2 µM in [9].

Take `COc1ccc2c(c1)C(=O)c1c-2c(Nc2ccc(Cl)cc2)nc2ccccc12`: the GI50 is 10.7 µM in test [1]; 4.15 µM in test [2]; 50 µM in [3]; 14.3 µM in test [4]; 24.5 µM in test [10]; 8.49 µM in test [5]. The GI50 in [6] was 10.3 µM; in [7], 22.3 µM; in [8] it was 2.84 µM; in [9], 38.6 µM. In addition, the TGI in [1] was 52.1 µM; in [2], 16 µM; in test [3], more than 100 µM; in test [4], 34.3 µM; in test [10], more than 100 µM; in [5] it was 98.5 µM. For the same compound, the TGI in [6] was 50 µM; in test [7], 84.1 µM; in test [8] it was 13.2 µM; in test [9], more than 100 µM.

On to `N#Cc1c(N)nc(N2CCOCC2)c(C#N)c1-c1cccnc1`, for which the GI50 was 17.2 µM in test [1]; more than 100 µM in [2]; more than 100 µM in test [3]; more than 100 µM in test [4]; 45.5 µM in [10]; more than 100 µM in test [5]. In addition, the GI50 in [6] is 81.8 µM; in [7] it was 25.7 µM; in test [8], more than 100 µM; in [9], more than 100 µM. In addition, the TGI in test [1] is 44.8 µM; in test [2] it was more than 100 µM; in test [3], more than 100 µM; in test [4] it was more than 100 µM; in [10], more than 100 µM; in test [5] it was more than 100 µM. Further, the TGI in test [6] is more than 100 µM; in [7], 73.5 µM; in [8] it was more than 100 µM; in test [9] it was more than 100 µM.

As for `Nc1nc(-c2ccccc2)nc2c1[n+]([O-])c1ccccc1[n+]2[O-]`, the TGI in test [1], in test [2], in test [3], in [4], in test [10] and in test [5] was more than 100 µM throughout. The TGI in test [6], in test [7], in test [8] and in test [9] was more than 100 µM throughout.

Turning to `CC1OC(OC2C(O[C@H]3CC[C@@]4(C)C(=CC[C@H]5[C@@H]6C[C@@H]7O[C@]8(CC[C@H](C)CN8)[C@@H](C)[C@@H]7[C@@]6(C)CC[C@@H]54)C3)OC(CO)C(O)C2OC2OC(CO)C(O)C(O)C2O)C(O)C(O)C1O` (some centres not stated), the TGI in [1] came out at 39.5 µM; in test [2] it was 51 µM; in [3] it was 34.9 µM; in test [4], 31.1 µM; in test [5], 33.6 µM; in test [6] it was 38.2 µM. For the same compound, the TGI in test [7] came out at 28.7 µM; in test [8], 33.6 µM; in [9] it was 50.7 µM.

Turning to `CCCCS(=O)(=O)CCC(N)C(=O)O` (configuration not stated), the TGI in test [1], in test [2], in test [3], in [4], in test [5] and in test [6] was more than 100 µM throughout. The TGI in [7] and in test [8] was more than 100 µM in each case.

Consider `CN(C)c1ccc(Nc2cc(-c3cccc(OC(F)(F)F)c3)nc3ccc(N4CCCC4)cc23)cc1`, for which the GI50 in test [1] is 1.56 µM; in [2] it was 1.71 µM; in [4] it was 1.84 µM; in test [10], 1.87 µM; in test [5], 2.82 µM; in test [6], 3.49 µM. Further, the GI50 in test [7] was 1.79 µM; in test [8] it was 1.82 µM; in test [9], 1.82 µM. Besides, the TGI in [1] was determined as 3.06 µM; in [2] it was 3.24 µM; in [4], 3.3 µM; in [10], 4.48 µM; in test [5] it was 7.91 µM; in test [6], 15.4 µM. The TGI was found to be 3.37 µM in test [7], 3.3 µM in test [8] and 3.37 µM in test [9].

With `N#CSCC1CC(O)(c2ccccc2)CC(c2ccc(F)cc2)O1` (configuration not stated), the GI50 in [1] was 3.19 µM; in test [2], 1.61 µM; in test [3], 1.63 µM; in test [4], 2.07 µM; in test [10], 1.64 µM; in [5], 1.56 µM. For the same compound, the values for the GI50 in test [7], in test [8] and in test [9] were 2.32 µM, 1.74 µM and 1.83 µM, respectively. Also, the TGI in [1] stood at 12 µM; in test [2], 3.27 µM; in test [3], 3.07 µM; in [4] it was 5.77 µM; in [10] it was 4.65 µM; in test [5], 3.45 µM. The TGI in [7] is 5.28 µM; in test [8], 3.26 µM; in test [9], 4.08 µM.

On to `Cc1cccc2c(=O)c3c(sc12)c(NCCNCCO)nc1ccccc13`, for which the GI50 in [1] was 1.19 µM; in test [2], 1.83 µM; in test [3], 1.64 µM; in test [10], 1.81 µM; in [5], 1.68 µM; in test [6] it was 1.56 µM. For the same compound, the GI50 in test [7] was 1.61 µM; in test [8], 1.65 µM; in test [9] it was 1.75 µM. Further, the TGI in test [1] was found to be 2.65 µM; in test [2] it was 3.51 µM; in test [3], 3.19 µM; in [10], 3.88 µM; in [5] it was 3.12 µM; in test [6] it was 3.32 µM. The TGI amounted to 3.06 µM in [7], 3.08 µM in [8] and 3.25 µM in test [9].

In the case of `c1csc(-c2cc(-c3cccs3)c(-c3cccs3)s2)c1`, the TGI in [1], in test [2], in [3], in [4], in test [5] and in test [6] was more than 100 µM in each case. Also, the TGI in test [7], in test [8] and in test [9] was more than 100 µM throughout.

With `CC(C)CCN=C(N)c1ccc(N2CCN(c3ccc(C(N)=NCCC(C)C)cc3)CC2)cc1`, the GI50 in [1] was 6.27 µM; in test [2] it was 6.58 µM; in test [3], 3.82 µM; in [4], 9.08 µM; in test [5], 6.95 µM; in test [6], 17.9 µM. The GI50 is 38.5 µM in [7], 3.06 µM in test [8] and 9.76 µM in test [9]. In addition, the TGI was 40.3 µM in [1]; 38 µM in test [2]; 16.6 µM in test [3]; 89.9 µM in test [4]; 71.2 µM in test [5]; 46.8 µM in test [6]. In addition, the TGI was more than 100 µM in [7], 7.97 µM in [8] and 24.2 µM in test [9].

Take `COC(=O)CCC(=O)CC(=O)C(=O)Nc1c(Cl)cc([N+](=O)[O-])cc1Cl`: the TGI in test [1] was more than 100 µM; in [2], more than 100 µM; in [3], more than 100 µM; in [4], more than 100 µM; in test [10], 88.1 µM; in test [6], more than 100 µM. In addition, the TGI in test [7] and in test [8] was more than 100 µM each time.

On to `CC(=O)c1ccc(NC(=O)C(=O)Nn2c(=S)[nH]c3ccccc3c2=O)cc1`, for which the TGI in [1], in test [2], in test [3], in test [4], in test [10] and in test [6] was more than 100 µM in each case. Moreover, the TGI in [7] and in test [8] was more than 100 µM each time.

On to `O=C1C2C3C=CC(C2C(=O)N1COP(=O)(O)O)C1C2C(=O)N(COP(=O)(O)O)C(=O)C2C31` (configuration not stated), for which the TGI in test [1] is more than 100 µM; in test [2] it was more than 100 µM; in test [3], more than 100 µM; in test [4], more than 100 µM; in [10] it was more than 68.5 µM; in test [6], more than 100 µM. Further, the TGI in test [7] and in test [8] was more than 100 µM in each case.

Consider `COc1cc2c3c(c1OC)-c1c(ccc4c1OCO4)CC3(C#N)N(C(=O)c1ccccc1)CC2` (configuration not stated), for which the TGI in [1], in test [2], in [3], in test [4], in [10] and in [6] was more than 100 µM each time. Further, the TGI in test [7] and in test [8] was more than 100 µM each time.

As for `O=C(CC1(O)C(=O)Nc2c(Cl)cc(Cl)cc21)c1cccc2ccccc12` (configuration not stated), the TGI was 36.9 µM in test [1]; 29.7 µM in [2]; 31.5 µM in test [3]; 27.3 µM in test [4]; 47.4 µM in test [10]; 31.1 µM in test [6]. Further, the TGI in test [7] turned out to be 37.1 µM; in test [8], 28.4 µM.

With `COc1cc(OC)c(C2CC=Cc3c(OC)cc(OC)c(OC)c32)cc1OC` (configuration not stated), the TGI in [1], in test [2], in [3], in [4], in [10] and in test [6] was more than 100 µM throughout. The TGI in [7] and in test [8] was more than 100 µM throughout.

Regarding `CCC1CCc2nc3sc(C(=O)Nc4cccc(F)c4)c(N)c3cc2C1` (configuration not stated), the GI50 in test [1] was more than 100 µM; in test [2], 0.701 µM; in [4] it was more than 100 µM; in test [10] it was more than 100 µM; in test [5] it was more than 100 µM; in test [6] it was more than 100 µM. Moreover, the GI50 in test [7] is more than 100 µM; in test [8], 0.386 µM; in [9] it was 0.11 µM. Further, the TGI in test [1], in [2], in test [4], in test [10], in test [5] and in [6] was more than 100 µM in each case. Besides, the results for the TGI in test [7], in [8] and in test [9] were more than 100 µM, more than 100 µM and 0.616 µM, respectively.

`O=C(Cc1nc2ccccc2s1)Nc1cccc(C(F)(F)F)c1`: the TGI in test [1] was 25.9 µM; in test [2], 27.2 µM; in test [3] it was 30.5 µM; in test [4], 36.1 µM; in [10] it was 28.7 µM; in test [6], 44.7 µM. Further, the TGI in [7] is 32.5 µM; in test [8], 32.2 µM.

As for `COC(=O)CCCC(=O)O`, the TGI in test [1], in [2], in test [3], in test [4], in [5] and in [6] was more than 100 µM in each case. Moreover, the TGI in test [7], in [8] and in test [9] was more than 100 µM each time.
